Results reported in EPA's ToxRefDB 2.

Assays:
[1] = test system: rat; details: Combined chronic toxicity/carcinogenicity, fischer, Oral, Feed, dose end: 24 month
[2] = test system: mouse; details: Carcinogenicity, b6c3f1, Oral, Feed, dose end: 18 month
[3] = test system: rat; details: Combined chronic toxicity/carcinogenicity, fischer, Oral, Feed, dose end: 24 month; remark: listed apart in the source
[4] = test system: rat; details: Developmental neurotoxicity ChE Inhibition study; sprague dawley; Oral; Gavage/Intubation; dose end: 21 PND; group: cannot be grouped; cholinesterase / cholinesterase / cholinesterase / erythrocyte cholinesterase (che)
[5] = test system: dog; details: Subchronic oral toxicity in nonrodent, beagle, Feed, dose end: 6 month, group: systemic
[6] = test system: rat; details: Prenatal developmental toxicity study, sprague dawley, Oral, Gavage/Intubation, dose end: 15 GD
[7] = test system: dog; details: Chronic toxicity; beagle; Oral; Feed; dose end: 52 week; group: systemic; systemic / in life observation / body weight / body weight gain
[8] = test system: dog; details: Subchronic oral toxicity in nonrodent, beagle, Feed, dose end: 6 month, group: systemic; remark: listed apart in the source
[9] = test system: mouse; details: Carcinogenicity; cd1; Oral; Feed; dose end: 18 month; group: systemic; systemic / in life observation / body weight / body weight + systemic / in life observation / body weight / body weight gain + systemic / in…
[10] = group: cholinesterase, cholinesterase / cholinesterase / cholinesterase / plasma cholinesterase (che)
[11] = group: cholinesterase, cholinesterase / cholinesterase / cholinesterase / plasma cholinesterase (che) + cholinesterase / cholinesterase / cholinesterase / brain …
[12] = group: systemic, systemic / pathology microscopic / parathyroid gland / hyperplasia
[13] = group: systemic, systemic / pathology microscopic / parathyroid gland / hyperplasia + systemic / hematology / erythrocyte (rbc) count differential / …
[14] = group: cholinesterase, cholinesterase / cholinesterase / cholinesterase / erythrocyte cholinesterase (che) + cholinesterase / cholinesterase / cholinesterase / …
[15] = group: systemic, systemic / in life observation / body weight / body weight + systemic / in life observation / food consumption / food consumption + systemic…
[16] = group: cholinesterase, cholinesterase / cholinesterase / cholinesterase / erythrocyte cholinesterase (che)
[17] = group: systemic, systemic / hematology / mean corpuscular (cell) volume (mcv) / mean corpuscular (cell) volume (mcv) + systemic / hematology / mean …
[18] = group: systemic, systemic / in life observation / food consumption / food consumption + systemic / pathology microscopic / parathyroid gland / hyperplasia
[19] = systemic / in life observation / body weight / body weight gain
[20] = systemic / in life observation / body weight / body weight gain + systemic / in life observation / food consumption / food consumption
[21] = group: developmental, systemic / in life observation / body weight / fetal weight
[22] = group: maternal, reproductive / reproductive performance / implantations / implantations + systemic / in life observation / body weight / body weight gain + …

CCOC(=O)CC(SP(=S)(OC)OC)C(=O)OCC (configuration not stated) [Malathion]
LOAEL [1, 10]: 29 mg/kg/day
NEL [1, 11]: 4 mg/kg/day
NOAEL [1, 11]: 4 mg/kg/day
LEL ([1]; group: cholinesterase, cholinesterase / cholinesterase / cholinesterase / plasma cholinesterase (che) + cholinesterase / cholinesterase / cholinesterase / …): 29 mg/kg/day
LEL [1, 12]: 4 mg/kg/day
NEL [1, 12]: < 4 mg/kg/day
LOAEL [1, 13]: > 739 mg/kg/day
NOAEL [1, 13]: ≥ 739 mg/kg/day
LEL [2, 14]: 143 mg/kg/day
LOAEL [2, 14]: 143 mg/kg/day
NEL [2, 14]: 17.4 mg/kg/day
NOAEL [2, 14]: 17.4 mg/kg/day
LEL [2, 15]: 1480 mg/kg/day
LOAEL [2, 15]: 1480 mg/kg/day
NEL [2, 15]: 143 mg/kg/day
NOAEL [2, 15]: 143 mg/kg/day
LEL [3, 16]: 5 mg/kg/day
NEL [3, 16]: < 5 mg/kg/day
LOAEL [3, 10]: 29 mg/kg/day
NOAEL [3, 11]: 4 mg/kg/day
LOAEL [3, 17]: 359 mg/kg/day
NOAEL [3, 17]: 29 mg/kg/day
LEL [3, 18]: 4 mg/kg/day
NEL [3, 18]: < 4 mg/kg/day
LEL [4]: 5 mg/kg/day
LOAEL [4]: 5 mg/kg/day
NEL [4]: < 5 mg/kg/day
NOAEL [4]: < 5 mg/kg/day

CCc1cccc(C)c1N(C(=O)CCl)C(C)COC (configuration not stated) [Metolachlor]
LOAEL [5, 19]: 29.4 mg/kg/day
LEL [5, 20]: 29.4 mg/kg/day
NEL [5, 20]: 8.77 mg/kg/day
NOAEL [5, 20]: 8.77 mg/kg/day
LEL [6, 21]: 1000 mg/kg/day
LOAEL [6, 21]: 1000 mg/kg/day
NEL [6, 21]: 300 mg/kg/day
NOAEL [6, 21]: 300 mg/kg/day
LOAEL [6, 22]: 1000 mg/kg/day
NEL [6, 22]: 100 mg/kg/day
NOAEL [6, 22]: 300 mg/kg/day
LEL ([6]; group: maternal, systemic / in life observation / clinical signs / salivation): 300 mg/kg/day
LEL [7]: 33 mg/kg/day
LOAEL [7]: 33 mg/kg/day
NEL [7]: 9.7 mg/kg/day
NOAEL [7]: 9.7 mg/kg/day
LOAEL [8, 19]: 29.4 mg/kg/day
LEL [8, 20]: 29.4 mg/kg/day
NEL [8, 20]: 8.77 mg/kg/day
NOAEL [8, 20]: 8.77 mg/kg/day
LEL [9]: 450 mg/kg/day
LOAEL [9]: 450 mg/kg/day
NEL [9]: 150 mg/kg/day
NOAEL [9]: 150 mg/kg/day
